Laboratory results as given in patent US20220168314A1, “MEDICAMENT FOR PROPHYLAXIS OR TREATMENT OF PULMONARY FIBROSIS” (MITSUBISHI TANABE PHARMA CORPORATION, priority 2019, published 2022).

Legend:
[1] = tested on: bleomycin-induced pulmonary fibrosis mice; settings: literature reports; cited from earlier work
[2] = tested on: bleomycin intra airway administration induced mouse pulmonary fibrosis model; assay: Lung pathological tissue (picrosirius red staining, hydroxyproline content), Example 1; type: in vivo; settings: Day 21, compound (I) 10 mg/kg once a day, eplerenone 50 mg/kg twice a day; for positive rate (PSR Positive %) in picrosirius red staining: left lung lobes; for hydroxyproline content (μg): lower lung lobes and middle lung lobe
Description: (§1) C57/BL6NTAC mice (male; body weight at start of a test: 25 g) (manufactured by The Jackson Laboratory) were grouped into the following 4 groups (12 mice in each group):
(§2) Group 1: normal group Group 2: no drug administration group (control group) Group 3: drug (the compound (I)) administration group Group 4: drug (eplerenone; positive control) administration group
(§3) On a day (Day 0) when the test was started, bleomycin (3.25 U/kg) was administered dropwise through airways to the mice of Groups 2-4 as test groups. Instead of bleomycin, saline was administered dropwise through airways to the mice of Group 1 as a normal group. On a seventh day (Day 7) after the start of the test, with a dosing schedule of twice a day in the morning and afternoon, oral gavage administration (twice in the morning and afternoon) of a vehicle (0.1% HCO60+0.5% CMC) was started for the mice of Groups 1 and 2; a 2 mg/ml solution of the compound (I) was prepared and oral gavage administration (in the morning) thereof at a dose of 10 mg/kg and oral gavage administration (in the afternoon) of a vehicle (0.1% HCO60+0.5% CMC) were started for the mice of Group 3; and oral gavage administration (twice in the morning and afternoon) of eplerenone at a dose of 50 mg/kg was started for the mice of Group 4. Thereafter, until a 21st day (Day 21) after the start of the test, the administrations were continued at the same dosing schedules. After the administrations were completed (Day 21), the following evaluation items were examined.
Pulmonary fibrosis is caused by that activated fibroblasts are accumulated at a fibrosis site and a large amount of type I collagen is produced. Therefore, based on a degree of collagen accumulation in a lung tissue, a degree of pulmonary fibrosis can be evaluated. Type I collagen and type III collagen in a tissue are stained by picrosirius red staining. Therefore, a situation of collagen accumulation can be image-diagnosed, and quantitative evaluation can also be performed by calculating a staining positive rate.
Specifically, the above staining was performed on a tissue section of the lungs, and an area of a stained site (fibrosis site) was measured and evaluated.
Hydroxyproline is a major component of collagen and is substantially absent in other proteins. Therefore, by measuring a content of hydroxyproline in a tissue, an amount of collagen can be evaluated.

[3] = tested on: bleomycin intra airway administration induced mouse pulmonary fibrosis model; assay: Lung functions in bleomycin intra airway administration induced mouse pulmonary fibrosis model (Example 1); type: in vivo; settings: Day 21; oral gavage Day 7-21; compound (I) 10 mg/kg once a day, eplerenone 50 mg/kg twice a day; vs bleomycin control group
Description: as §1, §2, §3
The following evaluation items were measured using a commercially available respiratory and lung function evaluation system (measurement site: around an airway). Evaluation of 4 items including: 1) inspiratory capacity (mL); 2) compliance (mL/cmH2O); 3) elastance) (cmH2O/mL); and 4) resistance (cmH2O.s/mL)
The “inspiratory capacity” corresponds to an amount of air discharged from the lungs at a stage when slowly breathing out to an end of a breath has completed, and is an indicator of a volume of the lungs. As pulmonary fibrosis progresses and the lung hardens, the volume of the lungs shrinks, and the inspiratory capacity decreases.
The “compliance” indicates a change in a lung capacity due to a certain change in pressure. […] As pulmonary fibrosis progresses and the lungs harden, the volume of the lungs shrinks, and the compliance decreases.
The “elastance” is a value represented by a reciprocal of the compliance, and is an indicator representing the difficulty for the lungs to stretch. As pulmonary fibrosis progresses and the lungs harden, the elastance increases.
The “resistance” means an airway resistance. The resistance is a resistance received by an air current in respiration, and a larger resistance means that it is harder for air to flow through the airway.

[4] = tested on: bleomycin subcutaneous continuous infusion induced mouse pulmonary fibrosis model; assay: Lung pathological tissue (picrosirius red staining, hydroxyproline content), Example 2; type: in vivo; settings: for hydroxyproline content (μg): right lung lobes
Description: (§4) Body weights of the mice of the test group were measured daily, and, on the seventh day (Day 7) after the start of the test, the mice of the test group were randomly grouped as follows using an amount of decrease in body weight as an indicator.
(§5) Group 2: no drug administration group (control group) (12 mice) Group 3: drug (the compound (I), 3 mg/kg) administration group (12 mice) Group 4: drug (the compound (I), 10 mg/kg) administration group (12 mice) Group 5: drug (the compound (I), 30 mg/kg) administration group (12 mice)
(§6) From an eighth day (Day 8) after the start of the test, oral gavage administration of a vehicle (0.1 ml per 10 g body weight) to the mice of Group 1 as the normal group and the mice of Group 2 as the no drug administration group was started, and, on the other hand, oral gavage administration of the compound (I) of a predetermined dosage to the mice of the drug administration groups of Groups 3-5 was started (for all groups, once a day in the morning). Thereafter, until a 21st day (Day 21) after the start of the test, the administrations were continued. After the administrations were completed, the following items were evaluated.
i) Evaluation by Picrosirius Red Staining (Left Lung Lobes)
ii) Evaluation of Hydroxyproline Content (μg) (Right Lung Lobes)

[5] = Concentration of the compound (I) in blood plasma, Example 2; type: in vivo, mouse
Description: as §6
Evaluation of a concentration (nM) of the compound (I) in a blood plasma at 2 hours (before the above evaluations) and at 24 hours after the final administration (Day 21) (similar to Example 1, blood samples obtained by tail vain blood sampling were evaluated.)

[6] = tested on: bleomycin subcutaneous continuous infusion induced mouse pulmonary fibrosis model; assay: Lung functions in bleomycin subcutaneous continuous infusion induced mouse pulmonary fibrosis model (Example 2); type: in vivo
Description: as §4, §5, §6
Evaluation of 4 items including: 1) inspiratory capacity (mL); 2) compliance (mL/cmH2O); 3) elastance) (cmH2O/mL); and 4) resistance (cmH2O.s/mL)

[7] = Concentration of the compound (I) in blood plasma, Example 1; type: in vivo, mouse; settings: 10 mg/kg oral
Description: as §3, with “After the administrations were completed (Day 21), the following evaluation items were examined.” left out
At 2 hours (before the above evaluations) and at 18 hours from the final administration of the compound (I) (Day 21), a small amount of blood was collected from a tail vein under anesthesia, and plasma was separated with an ice-cooled centrifuge, and a concentration (nM) of the compound (I) in the plasma was measured using a conventional method.

[8] = tested on: gene expression associated with pulmonary fibrosis; assay: Gene expression fluctuation associated with pulmonary fibrosis (mRNA, real time PCR, upper lung lobes), Example 1; type: in vivo, mouse; settings: Day 21, compound (I) 10 mg/kg once a day, eplerenone 50 mg/kg twice a day
Description: as §1, §2, §3
(iii) Evaluation of Gene Expression Fluctuation Associated with Pulmonary Fibrosis (Quantification of mRNA; Fold Increase) (Upper Lung Lobes)
According to a conventional method, mRNA was extracted from a homogenized upper lung lobe, and an extremely small amount of the mRNA was quantified using a real time PCR system.

CYP3A4 = CYP3A4 (Homo sapiens, UniProt P08684); settings: background statement; cited from earlier work
Sequence of CYP3A4 (P08684 whole entry): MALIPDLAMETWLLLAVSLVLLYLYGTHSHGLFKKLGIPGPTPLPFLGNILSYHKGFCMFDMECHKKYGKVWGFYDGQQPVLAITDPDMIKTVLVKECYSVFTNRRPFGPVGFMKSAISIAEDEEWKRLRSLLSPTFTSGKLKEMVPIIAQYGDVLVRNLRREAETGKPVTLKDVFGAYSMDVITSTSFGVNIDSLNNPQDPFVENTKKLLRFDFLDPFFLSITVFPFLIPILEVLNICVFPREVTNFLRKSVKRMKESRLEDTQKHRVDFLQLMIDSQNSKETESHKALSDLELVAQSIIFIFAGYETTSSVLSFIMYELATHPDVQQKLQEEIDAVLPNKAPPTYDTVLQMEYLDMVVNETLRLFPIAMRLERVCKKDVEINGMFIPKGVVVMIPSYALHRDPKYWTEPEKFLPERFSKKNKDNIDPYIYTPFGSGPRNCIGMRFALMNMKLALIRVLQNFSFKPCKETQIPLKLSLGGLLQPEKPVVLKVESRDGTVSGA

[9] = 30 mg/kg oral once a day, Day 8-21 (Group 5)
[10] = 3, 10 and 30 mg/kg oral once a day, Day 8-21 (Groups 3-5), dose-dependent

Compound	positive rate (PSR Positive %) in picrosirius red staining [2]	hydroxyproline content (μg) [2]	compliance (mL/cmH2O) [3]	elastance (cmH2O/mL) [3]	inspiratory capacity (mL) [3]	resistance (cmH2O.s/mL) [3]	CTGF gene expression [8]	Ccl2 gene expression [8]	PAI-1 gene expression [8]	TGFβ gene expression [8]	fibronectin gene expression [8]	type I collagen gene expression [8]	type III collagen gene expression [8]	type IV collagen gene expression [8]	vimentin gene expression [8]	αSMA gene expression [8]	further results
CC(=O)S[C@@H]1CC2=CC(=O)CC[C@]2(C)[C@H]2CC[C@@]3(C)[C@@H](CC[C@@]34CCC(=O)O4)[C@H]12 [spironolactone]																	accumulation of hydroxyproline (indicator of tissue fibrosis) [1]: improves
CC1(C)Oc2cc(NS(C)(=O)=O)ccc2N(c2ccc(F)cc2)C1=O [compound (I)]	significantly improving	significantly improved to an extent exceeding the effect of eplerenone	significantly improving	significantly improving	significantly improved to an extent exceeding the effect of eplerenone	very significantly improved to a level of the normal group exceeding the effect of eplerenone	significantly reduced	significantly reduced	significantly reduced	tendency to decrease	significantly reduced	significantly reduced	significantly reduced	significantly reduced	significantly reduced	significantly reduced	positive rate in picrosirius red staining ([4]; left lung lobes, all the doses 3, 10, 30 mg/kg oral once a day (Groups 3-5)): significantly decreased; hydroxyproline content (μg) ([4]; 3 mg/kg oral once a day, Day 8-21 (Group 3)): significantly decreased; hydroxyproline content (μg) [4, 9]: significantly decreased; concentration of the compound (I) in a blood plasma ([5]; 2 hours after the final administration (Day 21), 3, 10, 30 mg/kg oral): dose-dependent concentration; concentration of the compound (I) in a blood plasma ([5]; 24 hours after the final administration (Day 21), 30 mg/kg oral): sufficient concentration; inspiratory capacity (mL) ([6]; 10 mg/kg oral once a day, Day 8-21 (Group 4)): significantly improved; inspiratory capacity (mL) [6, 9]: significantly improved; resistance (cmH2O.s/mL) [6, 9]: significantly improved; compliance (mL/cmH2O) [6, 10]: significantly improved; elastance (cmH2O/mL) [6, 10]: significantly improved; concentration of the compound (I) in a blood plasma ([7]; 2 hours after the final administration (Day 21)): sufficient concentration; concentration of the compound (I) in a blood plasma ([7]; 18 hours after the final administration (Day 21)): sufficient concentration
COC(=O)[C@@H]1CC2=CC(=O)CC[C@]2(C)[C@@]23O[C@@H]2C[C@@]2(C)[C@@H](CC[C@@]24CCC(=O)O4)[C@H]13 [eplerenone, reference compound]	significantly improved	significantly improved	significantly improved	significantly improved	significantly improved	significantly improved	significantly reduced	significantly reduced	significantly reduced	tendency to increase	significantly reduced	could not reduce	could not reduce	could not reduce	significantly reduced	could not reduce	metabolizing enzyme (CYP3A4): mainly metabolized by CYP3A4
